One series relates to H1N1 virus. The following applies: H1N1 infected chicken, 0,002 mg/kg each 24 hours, 24 hours after treatment, versus control group.
For series [1] the following is noted: rats given 4,5 mg/kg of mercury (HgHCI); treatment of 0,0937 mg/ml; without treatment 6 in 8 rats died.
A further series concerns A549 cells. The series is described as follows: cells. The following applies: Homo sapiens, A549, 96 h. How it is done: (§1) Further, a proliferation test was prepared for the same three cell lines: WI-38, A549 and HS 683. 3x10^4 WI-38 cells and 2x10^4 A549 and HS 683. Cells were seeded into each wells in 96-well culture plates in appropriate culture medium with 10% FBS (fetal bovine serum). […] After 96 hours incubation in 37°C/5%CO2 MTT assay was performed for establishing the cell viability.

For another series, the system named is WI-38 cells. In words: cells. The following applies: Homo sapiens, WI-38, 96 h. How it is done:
as §1

Another series has as its system HS-683. The series is described as follows: cells. The following applies: Homo sapiens, Hs 683, 96 h. How it is done: as §1
The conditions of series [2]: in vivo.
Excerpt: Thereby the healing process of a human ulcer is examined as a basic condition.
In another series the test system is human PBLs. The following applies: human leukocytes, 48 hours, MTT.
Another series deals with IFN-γ production. The protocol: (§2) After 24 hours of incubation in 37°C/5%CO2 samples of leukocytes and supernatants were collected.
(§3) Cytokine levels were determined using ELISA kits (BD Biosciences, USA) for human IFNγ, TNF-α and IL-6 and DuoSet for human IL-3 (R&D Systems, USA) according to the producers' instructions. The optical density was measured at 450 nm using a Multiskan RC spectrophotometric reader (Thermo Labsystems, USA), Cytokine concentrations were expressed in pg/ml.

A further series deals with IL-6 production. The protocol: as §2, §3
A further series relates to TNF-α production. How it is done:
as §2, §3

Another series in a line: in vitro. The following applies: human, peripheral blood leukocytes.
Where [3] appears, read: read-out: concentration that inhibits 50% of the proliferation.

1 molecule from patent publication EP3831363A1 (Solis Herrera, Arturo, priority 2019, dated 2021) can be followed below.

SMILES strings stand for the structures. Values after ≈ are worked out from the molar mass of the structure shown.

Description for human PBLs: (§4) Thereby, cell viability was determined on the basis of the mitochondria-dependent reduction of MTT (3-[4,5-dimethyltiazol 2yl]-2,5-diphenyltetrazolium bromide) to formazan. […] Next cells were treated with 20 µl of MTT. After 3 hours of incubation at 37°C, the formazan blue formed in the cells was dissolved in 100 µl of SDS (sodium dodecylsulfate) for 3 hours in 37°C. The optical density was measured at 570 nm.
(§5) After the cytotoxicity tests LC50 (LCso-lethal concentration, 50%-dose required to kill half of the cells after a specified test duration) were estimated for each cell lines and PBLs (leukocytes of peripheral blood). Additionally for PBLs LC10 and LC5 were calculated.
Description for in vitro: as §4, §5

As for `CN1CCC[C@H]1c1cccnc1`, in the series on H1N1 virus, the egg production result is “began to lay off eggs”. The mortality in [1] is 0,625 of 8 rats. The IC50 was 2000 µg/mL (≈ 12.3 mM) in the series with A549 cells (setting [3]), 1000 µg/mL (≈ 6.16 mM) in the series on WI-38 cells (setting [3]) and 2900 µg/mL (≈ 17.9 mM) in the series with HS-683 (setting [3]). For the same molecule, the IC99 in the series on A549 cells (read-out: concentration that inhibits 99% of the proliferation) was determined as 5500 µg/mL; with WI-38 cells (read-out: concentration that inhibits a proliferation of 99%), 4500 µg/mL; with HS-683 (read-out: concentration at which 99% of proliferation are inhibited) it was 5500 µg/mL. In series [2], the “healing effect on ulcer” value is “increased healing effect”. Besides, the LC5 in the series on human PBLs is 0,5 mg/ml. Further, the LC10 with human PBLs was found to be 1000 µg/mL (≈ 6.16 mM). The “effect on IFN-γ production” value in the series with IFN-γ production was “strongly decreases the level of interferon in a dose-dependent manner”. The “effect on IL-6 production” value in the series on IL-6 production was “no effect”. In the series with TNF-α production, the “effect on TNF-α production” value is listed as “increases the level of cytokines in a dose-dependent manner”. Further, in “in vitro”, the CC50 at 48 h was determined as 7000 µg/mL (≈ 43.1 mM).
